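A five-concentration, 48-hour dose response in 96-well plates underlies each endpoint, interpolated linearly between surrounding concentrations. GI50 is the concentration that inhibits growth by half. TGI marks complete inhibition of growth.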
Assays:
Test in all cases: NCI tumour cell line growth inhibition, 48 h
[1] = system: MDA-MB-435
[2] = system: MOLT-4 leukemia
[3] = system: K-562 leukemia
[4] = system: PC-3 prostate
[5] = system: UACC-62 melanoma
[6] = system: MALME-3M melanoma
[7] = system: HCC-2998 colon
[8] = system: BT-549 breast
[9] = system: SK-OV-3 ovarian
[10] = system: SNB-19 CNS
[11] = system: KM12 colon
[12] = system: TK-10 renal
[13] = system: IGROV1 ovarian
[14] = system: SW-620 colon
[15] = system: SF-295 CNS
[16] = system: SF-539 CNS
[17] = system: NCI-H23 lung
[18] = system: HOP-92 NSCLC
[19] = system: OVCAR-5 ovarian
[20] = system: SK-MEL-5 melanoma
[21] = system: OVCAR-4 ovarian
[22] = system: OVCAR-3 ovarian
[23] = system: SN12C renal
[24] = system: HL-60(TB) leukemia
[25] = system: COLO 205 colon
[26] = system: MDA-MB-231 breast
[27] = system: 786-0 renal
[28] = system: CAKI-1 renal
[29] = system: HCT-116 colon
[30] = system: M14 melanoma
[31] = system: LOX IMVI melanoma
[32] = system: NCI-H226 lung
[33] = system: EKVX NSCLC
[34] = system: UO-31 renal
[35] = system: RXF 393 renal
[36] = system: SK-MEL-2 melanoma
[37] = system: DU-145 prostate
[38] = system: NCI/ADR-RES ovarian
[39] = system: SK-MEL-28 melanoma
[40] = system: CCRF-CEM leukemia
[41] = system: SF-268 CNS
[42] = system: RPMI-8226 leukemia
[43] = system: T-47D breast
[44] = system: MCF7 breast
[45] = system: HOP-62 NSCLC
[46] = system: HS 578T breast
[47] = system: NCI-H522 lung
[48] = system: UACC-257 melanoma
[49] = system: HCT-15 colon
[50] = system: A549 NSCLC
[51] = system: SNB-75 CNS

Compound `c1cnc2[nH]cc(-c3csc(-c4cn(CCCCN5CCOCC5)c5ccccc45)n3)c2c1` has a GI50 [1] of 1720 nM, a TGI [1] of 3200 nM and a GI50 [2] of 1820 nM. The TGI [2] was 3670 nM, the GI50 [3] was 2020 nM and the TGI [3] was 3930 nM. For the same compound, the GI50 [4] was 1590 nM, the TGI [4] was 4010 nM and the GI50 [5] was 1790 nM. The TGI [5] was 3800 nM, the GI50 [6] was 1320 nM and the TGI [6] was 2960 nM. It also gave a GI50 [7] of 1740 nM, a TGI [7] of 3260 nM and a GI50 [8] of 2130 nM. It also gave a TGI [8] of 5190 nM, a GI50 [9] of 2340 nM and a TGI [9] of 5740 nM. For the same compound, the GI50 [10] was 1760 nM, the TGI [10] was 3490 nM and the GI50 [11] was 1720 nM. The TGI [11] was 3340 nM, the GI50 [12] was 2770 nM and the TGI [12] was 7240 nM. It also gave a GI50 [13] of 1430 nM, a TGI [13] of 4250 nM and a GI50 [14] of 1770 nM. It also gave a TGI [14] of 3540 nM, a GI50 [15] of 1920 nM and a TGI [15] of 4040 nM. The GI50 [16] was 1710 nM, the TGI [16] was 3130 nM and the GI50 [17] was 2040 nM. The TGI [17] was 4490 nM, the GI50 [18] was 1430 nM and the TGI [18] was 3130 nM. For the same compound, the GI50 [19] was 1820 nM, the TGI [19] was 3450 nM and the GI50 [20] was 1730 nM. It also gave a TGI [20] of 3160 nM, a GI50 [21] of 2060 nM and a TGI [21] of 5690 nM. For the same compound, the GI50 [22] was 1640 nM, the TGI [22] was 3170 nM and the GI50 [23] was 2980 nM. It also gave a TGI [23] of 10800 nM, a GI50 [24] of 1960 nM and a TGI [24] of 3920 nM. It also gave a GI50 [25] of 1730 nM, a TGI [25] of 3510 nM and a GI50 [26] of 1580 nM. It also gave a TGI [26] of 3270 nM, a GI50 [27] of 1850 nM and a TGI [27] of 3330 nM. It also gave a GI50 [28] of 1740 nM, a TGI [28] of 3520 nM and a GI50 [29] of 1650 nM. It also gave a TGI [29] of 3050 nM, a GI50 [30] of 1780 nM and a TGI [30] of 3620 nM. For the same compound, the GI50 [31] was 1740 nM, the TGI [31] was 3260 nM and the GI50 [32] was 2290 nM. It also gave a TGI [32] of 8230 nM, a GI50 [33] of 2070 nM and a TGI [33] of 4740 nM. The GI50 [34] was 1150 nM, the TGI [34] was 2530 nM and the GI50 [35] was 1670 nM. It also gave a TGI [35] of 3310 nM, a GI50 [36] of 1940 nM and a TGI [36] of 3870 nM. It also gave a GI50 [37] of 2120 nM, a TGI [37] of 4280 nM and a GI50 [38] of 2040 nM. The TGI [38] was 4710 nM, the GI50 [39] was 1810 nM and the TGI [39] was 3300 nM. The GI50 [40] was 1980 nM, the TGI [40] was 4030 nM and the GI50 [41] was 1760 nM. For the same compound, the TGI [41] was 3710 nM, the GI50 [42] was 1830 nM and the TGI [42] was 4290 nM. The GI50 [43] was 1330 nM, the TGI [43] was 3900 nM and the GI50 [44] was 1560 nM. For the same compound, the TGI [44] was 3570 nM, the GI50 [45] was 1700 nM and the TGI [45] was 3700 nM. For the same compound, the GI50 [46] was 1770 nM, the TGI [46] was 4980 nM and the GI50 [47] was 1950 nM. For the same compound, the TGI [47] was 3770 nM, the GI50 [48] was 1840 nM and the TGI [48] was 3530 nM. For the same compound, the GI50 [49] was 1810 nM, the TGI [49] was 3510 nM and the GI50 [50] was 1890 nM. The TGI [50] was 4130 nM, the GI50 [51] was 1190 nM and the TGI [51] was 2540 nM.

From PubChem BioAssay (NCI)
